The values that follow come from US9458172B2, “Pyridinyl and pyrimidinyl sulfoxide and sulfone derivatives” (priority 2012, dated 2016).

Like-named read-outs stand apart in the source and are kept apart here.

The target of one assay is NAMPT (Homo sapiens (Human), UniProt P43490). As to the kind of experiment: Biochemical Inhibition Assay (NAMPT enzymatic reaction, NMN quantified by mass spectrometry). The conditions noted are these: 33 nM recombinant His-tagged NAMPT, 1 μM NAM, 30 min at rt. In short, it runs like this: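 His-tagged human NAMPT from E. coli preincubated 15 min at rt with compound in 50 mM Hepes pH 7.5, 50 mM NaCl, 5 mM MgCl2, 1 mM THP, then reacted 30 min at rt with 1 μM NAM, […] PRPP, 2.5 mM ATP. NMN quantified by RapidFire mass spectrometry, normalized to L-Cystathionine, background subtracted.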

The test system of the next assay is A2780 cells. As to the kind of experiment: In-Vitro Cell Proliferation Assay (SRB). To be noted: Homo sapiens, A2780, 72 h.
[1] abbreviates: read-out: Cell Proliferation (IC50).

Chain of NAMPT (P43490 whole entry): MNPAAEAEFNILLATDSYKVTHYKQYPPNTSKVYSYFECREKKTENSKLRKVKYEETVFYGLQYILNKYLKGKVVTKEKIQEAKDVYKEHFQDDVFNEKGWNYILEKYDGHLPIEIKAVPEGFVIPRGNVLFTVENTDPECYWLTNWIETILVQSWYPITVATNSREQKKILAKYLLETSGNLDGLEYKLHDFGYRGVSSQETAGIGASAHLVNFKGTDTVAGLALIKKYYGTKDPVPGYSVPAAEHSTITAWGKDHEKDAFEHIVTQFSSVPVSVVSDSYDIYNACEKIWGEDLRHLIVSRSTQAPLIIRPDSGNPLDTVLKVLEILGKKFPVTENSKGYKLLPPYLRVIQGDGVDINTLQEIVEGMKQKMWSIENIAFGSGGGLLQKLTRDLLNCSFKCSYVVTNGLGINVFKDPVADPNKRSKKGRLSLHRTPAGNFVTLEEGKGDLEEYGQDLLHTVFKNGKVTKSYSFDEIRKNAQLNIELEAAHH
Procedure for A2780 cells: Assay 2: In-Vitro Cell Proliferation Assay
Assay Method. […] The compounds were then further diluted to 10 OX final concentration in culture media, whereupon 20 μL of each dilution was added to the plated cells with controls (e.g. DMSO and blank) to make a final volume of 200 μL. The final DMSO concentration in each well was 0.1%. The plates were then incubated for 72 h at 37° C. in a 5% CO2 incubator. The number of viable cells was then assessed using sulforhodamine B (SRB) assay. Cells were fixed at 4° C. for 1 h with the addition of 50 μL 30% trichloroacetic acid (TCA) to make a final concentration of 6% TCA. The plates were washed four times with H2O and allowed to dry for at least 1 h, whereupon 100 μL of a 4% SRB in 1% acetic acid solution was added to each well and incubated at rt for at least 30 min. The plates were then washed three times with 1% acetic acid, dried, and treated with 100 μL of 10 mM Tris-Base solution. The plates were then read in a microplate reader at an absorbance of 570 nm. Background was generated on a separate plate with media only.
Determination of IC50 Values. First, the signals from the background plate were averaged, then the background was subtracted from the test plates.
The specificity of the compounds were determined via cell viability assay in the presence of the compound and either NAM or NMN Percent inhibitions were determined using the method given above.

Take `CCN(C)c1ncc(S(=O)(=O)c2ccc(CNC(=O)N3Cc4ccncc4C3)nc2)s1` [Example 147, N-[[5-[2-[ethyl(methyl)amino]thiazol-5-yl]sulfonyl-2-pyridyl]methyl]-1,3-dihydropyrrolo[3,4-c]pyridine-2-carboxamide]: the figures for the IC50 at NAMPT and in the assay with A2780 cells (setting [1]) were 6.83 nM and 5.97 nM, respectively.
Turning to `O=C(NCc1ccc(S(=O)(=O)N2CCC(N3CCCC3)CC2)cn1)N1Cc2ccncc2C1` [Example 148, N-[[5-[(4-pyrrolidin-1-yl-1-piperidyl)sulfonyl]-2-pyridyl]methyl]-1,3-dihydropyrrolo[3,4-c]pyridine-2-carboxamide], the figures for the IC50 on NAMPT and in the assay on A2780 cells (setting [1]) were 75.7 nM and 85.2 nM, respectively.
Consider `O=C(NCc1ccc(S(=O)(=O)N2CCC(N3CCCC3)CC2)cn1)c1cnc2[nH]ncc2c1` [Example 149, N-[[5-[(4-pyrrolidin-1-yl-1-piperidyl)sulfonyl]-2-pyridyl]methyl]-1H-pyrazolo[3,4-b]pyridine-5-carboxamide], for which the IC50 at NAMPT is 619 nM; in the assay with A2780 cells (read-out: Cell Proliferation (IC50), A2780 cells, 72 h, sulforhodamine B) it was 1860 nM.
Take `Nc1ccc(S(=O)(=O)c2ccc(CNC(=O)N3Cc4ccncc4C3)nc2)cn1` [Example 150, N-[[5-[(6-amino-3-pyridyl)sulfonyl]-2-pyridyl]methyl]-1,3-dihydropyrrolo[3,4-c]pyridine-2-carboxamide]: the IC50 on NAMPT is 99.2 nM; in the assay with A2780 cells (setting [1]) it was 678 nM.
Consider `N#Cc1cccc(S(=O)(=O)c2ccc(CNC(=O)c3cc4ccncc4o3)nc2)c1` [Example 151, N-[[5-(3-cyanophenyl)sulfonyl-2-pyridyl]methyl]furo[2,3-c]pyridine-2-carboxamide], for which the IC50 at NAMPT came to 55.2 nM; in the assay on A2780 cells (setting [1]) it was 54.6 nM.
`O=C(NCc1ccc(S(=O)(=O)C2CCN(CC(F)(F)F)CC2)cn1)c1ccc2nccn2c1` [Example 152, N-[[5-[[1-(2,2,2-trifluoroethyl)-4-piperidyl]sulfonyl]-2-pyridyl]methyl]imidazo[1,2-a]pyridine-6-carboxamide]: the IC50 at NAMPT amounted to 247 nM; in the assay on A2780 cells (setting [1]), 106 nM.
With `O=C(NCc1ccc(S(=O)(=O)C2CCN(CC(F)(F)F)CC2)cn1)c1cnc2[nH]ncc2c1` [Example 153, N-[[5-[[1-(2,2,2-trifluoroethyl)-4-piperidyl]sulfonyl]-2-pyridyl]methyl]-1H-pyrazolo[3,4-b]pyridine-5-carboxamide], the IC50 on NAMPT was found to be 1740 nM; in the assay with A2780 cells (setting [1]), 1340 nM.
On to `O=C(NCc1ccc(S(=O)(=O)c2cccc(N3CCOCC3)c2)cn1)c1ccc2nccn2c1` [Example 154, N-[[5-(3-morpholinophenyl)sulfonyl-2-pyridyl]methyl]imidazo[1,2-a]pyridine-6-carboxamide], for which the values for the IC50 on NAMPT and in the assay on A2780 cells (setting [1]) were 39.8 nM and 46.5 nM, respectively.
With `N#Cc1cccc(S(=O)(=O)c2ccc(CNC(=O)c3ccc4nccn4c3)nc2)c1` [Example 155, N-[[5-(3-cyanophenyl)sulfonyl-2-pyridyl]methyl]imidazo[1,2-a]pyridine-6-carboxamide], the IC50 on NAMPT turned out to be 74 nM; with A2780 cells (setting [1]), 89.7 nM.
As to `N#Cc1cccc(S(=O)(=O)c2ccc(CNC(=O)c3cnc4[nH]ncc4c3)nc2)c1` [Example 156, N-[[5-(3-cyanophenyl)sulfonyl-2-pyridyl]methyl]-1H-pyrazolo[3,4-b]pyridine-5-carboxamide], the IC50 came out at 452 nM on NAMPT and 940 nM in the assay with A2780 cells (setting [1]).
In the same order, the values of `O=C(NCc1ccc(S(=O)(=O)c2cccc(N3CCOCC3)c2)cn1)c1cnc2[nH]ncc2c1` [Example 157, N-[[5-(3-morpholinophenyl)sulfonyl-2-pyridyl]methyl]-1H-pyrazolo[3,4-b]pyridine-5-carboxamide] are 290 nM and 217 nM.
The like results for `N#Cc1cccc(S(=O)(=O)c2ccc(CNC(=O)N3Cc4ccncc4C3)nc2)c1` [Example 158, N-[[5-(3-cyanophenyl)sulfonyl-2-pyridyl]methyl]-1,3-dihydropyrrolo[3,4-c]pyridine-2-carboxamide] were, in that order, 156 nM and 2000 nM.
Consider `O=C(NCc1ccc(S(=O)(=O)C2CCN(C3CCOCC3)CC2)cn1)c1ccc2nccn2c1` [Example 161, N-[[5-[(1-tetrahydropyran-4-yl-4-piperidyl)sulfonyl]-2-pyridyl]methyl]imidazo[1,2-a]pyridine-6-carboxamide], for which the IC50 turned out to be 253 nM on NAMPT and 52.8 nM with A2780 cells (setting [1]).
With `O=C(NCc1ccc(S(=O)(=O)C2CCN(C3CCOCC3)CC2)cn1)c1cnc2[nH]ncc2c1` [Example 162, N-[[5-[(1-tetrahydropyran-4-yl-4-piperidyl)sulfonyl]-2-pyridyl]methyl]-1H-pyrazolo[3,4-b]pyridine-5-carboxamide], the IC50 at NAMPT is 1830 nM; with A2780 cells (setting [1]), 295 nM.
For the compound `O=C(NCc1ccc(S(=O)(=O)c2cncc(C(F)(F)F)c2)cn1)c1cc2ccncc2o1` [Example 163, N-[[5-[[5-(trifluoromethyl)-3-pyridyl]sulfonyl]-2-pyridyl]methyl]furo[2,3-c]pyridine-2-carboxamide], the IC50 on NAMPT was found to be 49.5 nM; in the assay with A2780 cells (setting [1]), 25.3 nM.
In the same order, the values of `O=C(NCc1ccc(S(=O)(=O)c2cncc(Cl)c2)cn1)c1cnc2[nH]ncc2c1` [Example 164, N-[[5-[(5-chloro-3-pyridyl)sulfonyl]-2-pyridyl]methyl]-1H-pyrazolo[3,4-b]pyridine-5-carboxamide] are 143 nM and 49.4 nM.
As for `O=C(NCc1ccc(S(=O)(=O)c2cncc(C(F)(F)F)c2)cn1)c1cnc2[nH]ncc2c1` [Example 165, N-[[5-[[5-(trifluoromethyl)-3-pyridyl]sulfonyl]-2-pyridyl]methyl]-1H-pyrazolo[3,4-b]pyridine-5-carboxamide], the results for the IC50 at NAMPT and with A2780 cells (setting [1]) were 217 nM and 64.4 nM, respectively.
`O=C(NCc1ccc(S(=O)(=O)C2CCN(CC(F)(F)F)CC2)cn1)c1cc2cnccc2[nH]1` [Example 166, N-[[5-[[1-(2,2,2-trifluoroethyl)-4-piperidyl]sulfonyl)-2-pyridyl]methyl]-1H-pyrrolo[3,2-c]pyridine-2-carboxamide]: the IC50 was determined as 224 nM on NAMPT and 91 nM in the assay with A2780 cells (setting [1]).
In the case of `O=C(NCc1ccc(S(=O)(=O)c2cnc(N3CCOCC3)nc2)cn1)c1ccc2nccn2c1` [Example 167, N-[[5-(2-morpholinopyrimidin-5-yl)sulfonyl-2-pyridyl]methyl]imidazo[1,2-a]pyridine-6-carboxamide], the IC50 at NAMPT stood at 23 nM; in the assay on A2780 cells (setting [1]), 6.7 nM.
For `O=C(NCc1ccc(S(=O)(=O)c2cncc(C(F)(F)F)c2)cn1)c1ccc2nccn2c1` [Example 168, N-[[5-[[5-(trifluoromethyl)-3-pyridyl]sulfonyl]-2-pyridyl]methyl]imidazo[1,2-a]pyridine-6-carboxamide], the IC50 came out at 60.8 nM at NAMPT and 14.9 nM with A2780 cells (setting [1]).
As for `O=C(NCc1ccc(S(=O)(=O)c2cncc(Cl)c2)cn1)c1cc2ccncc2o1` [Example 169, N-[[5-[(5-chloro-3-pyridyl)sulfonyl]-2-pyridyl]methyl]furo[2,3-c]pyridine-2-carboxamide], the IC50 at NAMPT turned out to be 66.4 nM; in the assay with A2780 cells (setting [1]), 26.9 nM.
Take `O=C(NCc1ccc(S(=O)(=O)c2cncc(C(F)(F)F)c2)cn1)N1Cc2ccncc2C1` [Example 170, N-[[5-[[5-(trifluoromethyl)-3-pyridyl]sulfonyl]-2-pyridyl]methyl]-1,3-dihydropyrrolo[3,4-c]pyridine-2-carboxamide]: the IC50 on NAMPT worked out at 49.1 nM; in the assay on A2780 cells (setting [1]), 25.4 nM.
